Patent US11052092B2, “N-{[2-(piperidin-1-yl)phenyl](phenyl)methyl}-2-(3-oxo-3,4-dihydro-2H-1,4-benzoxazin-7-yl)acetamide derivatives and related compounds as ROR-gamma modulators for treating autoimmune diseases” (Genfit, priority 2017, dated 2021)

Biological target: T1, human RORγt (Homo sapiens, UniProt P51449)
T1 construct: the full-length cDNA of human RORγt; expressed in transfected cells; host or cells: COS-7 (monkey kidney)
T1 sequence (P51449 1-497 isoform P51449-2): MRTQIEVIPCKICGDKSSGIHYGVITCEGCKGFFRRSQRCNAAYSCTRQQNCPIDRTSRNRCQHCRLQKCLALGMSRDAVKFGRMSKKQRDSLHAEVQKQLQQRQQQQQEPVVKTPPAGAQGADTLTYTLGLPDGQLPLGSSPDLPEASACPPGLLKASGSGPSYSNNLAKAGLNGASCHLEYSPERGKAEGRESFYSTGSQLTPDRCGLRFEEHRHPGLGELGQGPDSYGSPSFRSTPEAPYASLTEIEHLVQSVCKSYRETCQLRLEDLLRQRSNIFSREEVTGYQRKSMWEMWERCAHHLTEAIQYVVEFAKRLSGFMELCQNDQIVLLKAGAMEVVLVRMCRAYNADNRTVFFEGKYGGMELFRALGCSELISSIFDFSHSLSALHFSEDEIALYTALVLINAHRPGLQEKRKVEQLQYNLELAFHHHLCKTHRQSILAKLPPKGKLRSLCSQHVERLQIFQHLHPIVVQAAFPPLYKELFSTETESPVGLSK
Assay: RORE Luciferase/RORγt transactivation assay
Format: cell-based
Settings: COS-7 cells transfected with human IL-17 promoter luciferase reporter and RORγt plasmid; 20 h with compound; read-out: IC50, RORγt activity inhibition
Method: It is well known that RORγ binds to a conserved non-coding sequence (CNS) enhancer element in the IL-17 promoter.
Culture medium was changed every 2 days.
The 4.3 Kb human IL-17 promoter containing the RORγ-specific CNS enhancer element was PCR amplified from human genomic DNA and cloned into a pGL3-TKLuc2Cp reporter plasmid.
The luciferase reporter plasmid and the RORγt overexpression plasmid were transfected into COS-7 cell line using 4 μLJetPEI™/μg of DNA. Briefly, 150 ng of DNA (ration ½ between RORE-Tk Luc2Cp and cDNA RORγt or the empty vector for the negative control) was served to transfect adherent COS-7 cells in a […] culture flask, in complete medium (see cos-7 cell line culture).
Cells were then detached (using trypsin) and washed by centrifugation at 300 g for 10 minutes. Cell pellet was resuspended in serum free/phenol red free DMEM and seeded in 384 well plates at a density of 10000 cells/well and then incubated for 4 h at 37° C.
Compounds were dissolved in 100% DMSO to obtain 10 mM stock solutions. For each compound, test concentrations were diluted in serum free/phenol red free DMEM using the Genesis Freedom 200™ (TECAN) and added to the cells to obtain a 0.3% DMSO final concentration (in a final volume of 40 μL per well).
The luciferase activity was then measured with 40 μL/well steady-Glo Luciferase assay system (Promega, Madison, Wis.) and after incubation at room temperature for 30 minutes. The luminescence was estimated using the Ultra384 reader (TECAN). Data were collected and analyzed using GraphPad Prism software (GraphPad Software V5.02, San Diego Calif. USA). IC50 in μM and Emax in % were reported for each compound.

| Compound | IC50 |
| --- | --- |
| Cc1ccc(C(NC(=O)C2(c3ccc4c(c3)CS(=O)(=O)N4CC3CCOCC3)CC2)c2ccc(C)o2)c(C)c1 (stereo not shown) [Cpd. 157, N-[(2,4-dimethylphenyl)(5-methylfuran-2-yl)methyl]-1-[1-(oxan-4-ylmethyl)-2,2-dioxo-1,3-dihydro-2,1-benzothiazol-5-yl]cyclopropane-1-carboxamide] | < 10 nM |
| Cc1ccc(C(NC(=O)C2(c3ccc4c(c3)OCC(=O)N4)CC2)c2ccco2)c(C)c1 (stereo not shown) [Cpd. 139, N-[(2,4-dimethylphenyl)(furan-2-yl)methyl]-1-(3-oxo-3,4-dihydro-2H-1,4-benzoxazin-7-yl)cyclopropane-1-carboxamide] | 10 to 100 nM |
| Cc1ccc(C(NC(=O)C2(c3ccc4c(c3)CCN4C(=O)C3CC3)CC2)c2ccc(C)o2)c(C)c1 (stereo not shown) [Cpd. 95, 1-(1-cyclopropanecarbonyl-2,3-dihydro-1H-indol-5-yl)-N-[(2,4-dimethylphenyl)(5-methylfuran-2-yl)methyl]cyclopropane-1-carboxamide] | 10 to 100 nM |
| CCN1c2ccc(C3(C(=O)NC(c4ccc(C)o4)c4ccc(C)cc4C)CC3)cc2CS1(=O)=O (stereo not shown) [Cpd. 132, N-[(2,4-dimethylphenyl)(5-methylfuran-2-yl)methyl]-1-(1-ethyl-2,2-dioxo-1,3-dihydro-2,1-benzothiazol-5-yl)cyclopropane-1-carboxamide] | 10 to 100 nM |
| O=C1COc2ccc(CC(=O)NC(c3ccccc3)c3ccccc3N3CCCCC3)cc2N1 (stereo not shown) [Cpd. 13, 2-(3-oxo-3,4-dihydro-2H-1,4-benzoxazin-6-yl)-N-{phenyl[2-(piperidin-1-yl)phenyl]methyl}acetamide] | 1000 to 10000 nM |
| COc1ccc(C(NC(=O)C2(c3ccc4c(c3)OCS(=O)(=O)N4)CC2)c2ccc(C)o2)c(Br)c1 (stereo not shown) [Cpd. 147, N-[(2-bromo-4-methoxyphenyl)(5-methylfuran-2-yl)methyl]-1-(2,2-dioxo-1,3-dihydro-4,2,1-benzoxathiazin-6-yl)cyclopropane-1-carboxamide] | 10 to 100 nM |
| Cc1ccc(C(NC(=O)C2(c3ccc4c(ccn4CCC(=O)O)c3)CC2)c2ccc(C)o2)c(C)c1 (stereo not shown) [Cpd. 152, 3-[5-(1-{[(2,4-dimethylphenyl)(5-methylfuran-2-yl)methyl]carbamoyl}cyclopropyl)-1H-indol-1-yl]propanoic acid] | 10 to 100 nM |
| Cc1ccc(C(NC(=O)C2(c3ccc4c(c3)CS(=O)(=O)N4C)CC2)c2ccc(C)o2)c(C)c1 (stereo not shown) [Cpd. 70, N-[(2,4-dimethylphenyl)(5-methylfuran-2-yl)methyl]-1-(1-methyl-2,2-dioxo-1,3-dihydro-2,1-benzothiazol-5-yl)cyclopropane-1-carboxamide] | 10 to 100 nM |
| Cc1ccc(C(NC(=O)C2(c3ccc4c(c3)OC(C)(C)OC4)CC2)c2ccc(C)o2)c(C)c1 (stereo not shown) [Cpd. 168, 1-(2,2-dimethyl-2,4-dihydro-1,3-benzodioxin-7-yl)-N-[(2,4-dimethylphenyl)(5-methylfuran-2-yl)methyl]cyclopropane-1-carboxamide] | 100 to 1000 nM |
| Cc1ccc(C(NC(=O)C2(c3ccc4c(ccn4CCC(=O)O)c3)CC2)c2ccc(C)o2)c(N2CCCCC2)c1 (stereo not shown) [Cpd. 154, 3-{5-[1-({[4-methyl-2-(piperidin-1-yl)phenyl](5-methylfuran-2-yl)methyl}carbamoyl)cyclopropyl]-1H-indol-1-yl}propanoic acid] | < 10 nM |
| CC(C)=C1C(=O)Nc2ccc(CC(=O)NC(c3ccc(C)o3)c3ccc(C)cc3N3CCCCC3)cc21 (stereo not shown) [Cpd. 55, N-{[4-methyl-2-(piperidin-1-yl)phenyl](5-methylfuran-2-yl)methyl}-2-[2-oxo-3-(propan-2-ylidene)-2,3-dihydro-1H-indol-5-yl]acetamide] | 100 to 1000 nM |
| Cc1cnc(C(NC(=O)C2(c3ccc4c(c3)OCS(=O)(=O)N4)CC2)c2ccc(C)o2)c(C)c1 (stereo not shown) [Cpd. 153, N-[(3,5-dimethylpyridin-2-yl)(5-methylfuran-2-yl)methyl]-1-(2,2-dioxo-1,3-dihydro-4,2,1-benzoxathiazin-6-yl)cyclopropane-1-carboxamide] | 100 to 1000 nM |
| Cc1ccc(C(NC(=O)C2(c3ccc4[nH]cc(CCO)c4c3)CC2)c2ccc(C)o2)c(N2CCCCC2)c1 (stereo not shown) [Cpd. 66, 1-[3-(2-hydroxyethyl)-1H-indol-5-yl]-N-{[4-methyl-2-(piperidin-1-yl)phenyl](5-methylfuran-2-yl)methyl}cyclopropane-1-carboxamide] | 10 to 100 nM |
| Cc1ccc(C(NC(=O)Cc2ccc3c(c2)C(O)CC3)c2ccc(C)o2)c(N2CCCCC2)c1 (stereo not shown) [Cpd. 85, 2-(3-hydroxy-2,3-dihydro-1H-inden-5-yl)-N-{[4-methyl-2-(piperidin-1-yl)phenyl](5-methylfuran-2-yl)methyl}acetamide] | 10 to 100 nM |
| Cc1ccc(C(NC(=O)C2(c3ccc4c(ccn4CCO)c3)CC2)c2ccc(C)o2)c(C)c1 (stereo not shown) [Cpd. 69, N-[(2,4-dimethylphenyl)(5-methylfuran-2-yl)methyl]-1-[1-(2-hydroxyethyl)-1H-indol-5-yl]cyclopropane-1-carboxamide] | 10 to 100 nM |
| Cc1ccc(C(NC(=O)C2(c3ccc4c(c3)CN(S(C)(=O)=O)C4)CC2)c2ccc(C)o2)c(C)c1 (stereo not shown) [Cpd. 65, N-[(2,4-dimethylphenyl)(5-methylfuran-2-yl)methyl]-1-(2-methanesulfonyl-2,3-dihydro-1H-isoindol-5-yl)cyclopropane-1-carboxamide] | 10 to 100 nM |
| Cc1ccc(C(NC(=O)C2(c3ccc4c(c3)OCS(=O)(=O)N4)CC2)c2ccc(C)o2)c(C(F)(F)F)c1 (stereo not shown) [Cpd. 171, 1-(2,2-dioxo-1,3-dihydro-4,2,1-benzoxathiazin-6-yl)-N-{[4-methyl-2-(trifluoromethyl)phenyl](5-methylfuran-2-yl)methyl}cyclopropane-1-carboxamide] | 10 to 100 nM |
| Cc1ccc(C(NC(=O)C2(c3ccc4c(n3)OCC(=O)N4)CC2)c2ccc(C)o2)c(C)c1 (stereo not shown) [Cpd. 144, N-[(2,4-dimethylphenyl)(5-methylfuran-2-yl)methyl]-1-{2-oxo-1H,2H,3H-pyrido[2,3-b][1,4]oxazin-6-yl}cyclopropane-1-carboxamide] | 10 to 100 nM |
| Cc1ccc(C(NC(=O)C2(c3ccc4c(c3)OCS(=O)(=O)N4)CC2)c2ccc(C)o2)c(Br)c1 (stereo not shown) [Cpd. 131, N-[(2-bromo-4-methylphenyl)(5-methylfuran-2-yl)methyl]-1-(2,2-dioxo-1,3-dihydro-4,2,1-benzoxathiazin-6-yl)cyclopropane-1-carboxamide] | 10 to 100 nM |
| Cc1ccc(C(NC(=O)C2(c3ccc4c(c3)OCO4)CC2)c2ccc(C)o2)c(C)c1 (stereo not shown) [Cpd. 137, 1-(2H-1,3-benzodioxol-5-yl)-N-[(2,4-dimethylphenyl)(5-methylfuran-2-yl)methyl]cyclopropane-1-carboxamide] | 10 to 100 nM |
| Cc1ccc(C(NC(=O)C2(c3ccc4c(c3)CCC4=O)CC2)c2ccc(C)o2)c(C)c1 (stereo not shown) [Cpd. 141, N-[(2,4-dimethylphenyl)(5-methylfuran-2-yl)methyl]-1-(1-oxo-2,3-dihydro-1H-inden-5-yl)cyclopropane-1-carboxamide] | 100 to 1000 nM |
| Cc1ccc(C(NC(=O)Cc2ccc3c(c2)CC(=O)N3)c2ccc(C)o2)c(C)c1 (stereo not shown) [Cpd. 29, N-[(2,4-dimethylphenyl)(5-methylfuran-2-yl)methyl]-2-(2-oxo-2,3-dihydro-1H-indol-5-yl)acetamide] | 1000 to 10000 nM |
| Cc1ccc(C(NC(=O)C2(c3ccc4c(c3)OCC(=O)N4)CC2)c2ccc(C)o2)c(Br)c1 (stereo not shown) [Cpd. 135, N-[(2-bromo-4-methylphenyl)(5-methylfuran-2-yl)methyl]-1-(3-oxo-3,4-dihydro-2H-1,4-benzoxazin-7-yl)cyclopropane-1-carboxamide] | < 10 nM |
| Cc1ccc(C(NC(=O)C2(c3ccc4c(c3)OCO4)CC2)c2ccc(C)o2)c(N2CCCCC2)c1 (stereo not shown) [Cpd. 164, 1-(2H-1,3-benzodioxol-5-yl)-N-{[4-methyl-2-(piperidin-1-yl)phenyl](5-methylfuran-2-yl)methyl}cyclopropane-1-carboxamide] | 100 to 1000 nM |
| Cc1ccc(C(NC(=O)Cc2ccc3c(c2)C(O)C(=O)N3)c2ccc(C)o2)c(N2CCCCC2)c1 (stereo not shown) [Cpd. 46, 2-(3-hydroxy-2-oxo-2,3-dihydro-1H-indol-5-yl)-N-{[4-methyl-2-(piperidin-1-yl)phenyl](5-methylfuran-2-yl)methyl}acetamide] | 100 to 1000 nM |
